Measured values reported in ChEMBL document CHEMBL5257131, “Quantum Annealing Designs Nonhemolytic Antimicrobial Peptides in a Discrete Latent Space” (ACS Med Chem Lett, 2023).
Peptide text beside a SMILES is read from it.

Assays:
[1] = Hemolytic activity in human erythrocytes assessed as hemolysis at 1 uM incubated for 1 hrs by spectrophotometric analysis relative to control; type: toxicity, cell-based, Erythrocyte; details: read-out: Activity
Escherichia coli = experiment: Antimicrobial activity against Escherichia coli assessed as inhibition of microbial growth incubated for 26 hrs by micro-dilution test; type: functional
[2] = Hemolytic activity in rabbit RBC assessed as hemolysis at 100 uM incubated for 6 hrs by Uv-vis spectrophotometric analysis; type: toxicity, cell-based, Oryctolagus cuniculus; details: erythrocyte

MIC (Escherichia coli) [µg/mL] | SMILES | hemolysis at 1 h, 1 µM [1] [%] | Activity [2]
– | CC[C@H](C)[C@H](NC(=O)CN)C(=O)NCC(=O)N[C@@H](C)C(=O)N[C@H](C(=O)N[C@@H](CC(C)C)C(=O)N[C@@H](CCCCN)C(=O)N[C@H](C(=O)N[C@@H](CC(C)C)C(=O)N[C@H](C(=O)N[C@H](C(=O)NCC(=O)N[C@@H](CC(C)C)C(=O)N1CCC[C@H]1C(=O)N[C@@H](C)C(=O)N[C@@H](CC(C)C)C(=O)N[C@H](C(=O)N[C@@H](CO)C(=O)N[C@@H](Cc1c[nH]c2ccccc12)C(=O)N[C@H](C(=O)N[C@@H](CCCCN)C(=O)N[C@@H](CCCNC(=N)N)C(=O)N[C@@H](CCCCN)C(=O)N[C@@H](CCCNC(=N)N)C(=O)N[C@@H](CCC(N)=O)C(=O)N[C@@H](CCC(N)=O)C(N)=O)[C@@H](C)CC)[C@@H](C)CC)[C@@H](C)O)[C@@H](C)O)C(C)C)C(C)C [MELITTIN] | 90 | –
> 100 | CC[C@H](C)[C@H](NC(=O)CNC(=O)[C@H](CCCCN)NC(=O)[C@H](C)NC(=O)[C@@H](NC(=O)[C@H](CCCCN)NC(=O)[C@H](CCCCN)NC(=O)[C@H](CC(C)C)NC(=O)[C@@H](NC(=O)[C@@H](NC(=O)[C@@H](NC(=O)[C@H](CC(C)C)NC(=O)CN)C(C)C)[C@@H](C)O)C(C)C)C(C)C)C(=O)N[C@H](C(=O)N[C@@H](CCCCN)C(=O)N[C@H](C(=O)N[C@@H](C)C(=O)N[C@@H](CO)C(=O)N[C@@H](CCCCN)C(=O)N[C@H](C(=O)NCC(=O)N[C@@H](CO)C(=O)N[C@@H](CCCCN)C(=O)N[C@@H](CCC(=O)O)C(=O)N[C@@H](CC(C)C)C(=O)O)C(C)C)[C@@H](C)O)C(C)C (H-GLVTVLKKVAKGIVKTASKVGSKEL-OH) | – | –
6.25 | CC(C)C[C@H](NC(=O)[C@H](CC(N)=O)NC(=O)[C@H](CCCCN)NC(=O)[C@H](CC(C)C)NC(=O)[C@@H](NC(=O)[C@H](CCCCN)NC(=O)[C@H](Cc1ccccc1)NC(=O)CN)[C@@H](C)O)C(=O)N[C@@H](C)C(=O)N[C@@H](CCCCN)C(=O)N[C@@H](CCCCN)C(=O)N[C@H](C(=O)N[C@@H](C)C(=O)N[C@@H](CCCCN)C(=O)N[C@@H](CCCCN)C(=O)N[C@H](C(=O)N[C@@H](CC(C)C)C(=O)N[C@@H](CCCCN)C(=O)N[C@@H](C)C(=O)N[C@H](C(=O)N[C@@H](CCCNC(=N)N)C(=O)O)C(C)C)C(C)C)C(C)C (H-GFKTLKNLAKKVAKKVLKAVR-OH) | – | Non-Toxic

SMILES | MIC (Escherichia coli) [µg/mL] | hemolysis at 1 h, 1 µM [1] [%] | Activity [2]
CC1(C)S[C@@H]2[C@H](NC(=O)[C@H](N)c3ccccc3)C(=O)N2[C@H]1C(=O)O [AMPICILLIN] | 6.25 | – | –
